Data taken from the kinase profiling compilation of Christmann-Franck et al. (2016).

Legend:
Experiment in all cases: radiometric filter-binding kinase assay, Kinase HotSpot
[1] = molecular target: CLK1 (human) (UniProt P49759); settings: compound 0.5 µM; ATP 10 µM
[2] = molecular target: PNCK (human) (UniProt Q6P2M8); settings: compound 0.5 µM; ATP 10 µM
[3] = molecular target: ULK1 (human) (UniProt O75385); settings: compound 0.5 µM; ATP 10 µM
[4] = molecular target: CSNK2A1 (human) (UniProt P68400); settings: compound 0.5 µM; ATP 10 µM
[5] = molecular target: CDC42BPB (human) (UniProt Q9Y5S2); settings: compound 0.5 µM; ATP 10 µM
Chain of CDC42BPB (human) (Q9Y5S2 whole entry, looked up): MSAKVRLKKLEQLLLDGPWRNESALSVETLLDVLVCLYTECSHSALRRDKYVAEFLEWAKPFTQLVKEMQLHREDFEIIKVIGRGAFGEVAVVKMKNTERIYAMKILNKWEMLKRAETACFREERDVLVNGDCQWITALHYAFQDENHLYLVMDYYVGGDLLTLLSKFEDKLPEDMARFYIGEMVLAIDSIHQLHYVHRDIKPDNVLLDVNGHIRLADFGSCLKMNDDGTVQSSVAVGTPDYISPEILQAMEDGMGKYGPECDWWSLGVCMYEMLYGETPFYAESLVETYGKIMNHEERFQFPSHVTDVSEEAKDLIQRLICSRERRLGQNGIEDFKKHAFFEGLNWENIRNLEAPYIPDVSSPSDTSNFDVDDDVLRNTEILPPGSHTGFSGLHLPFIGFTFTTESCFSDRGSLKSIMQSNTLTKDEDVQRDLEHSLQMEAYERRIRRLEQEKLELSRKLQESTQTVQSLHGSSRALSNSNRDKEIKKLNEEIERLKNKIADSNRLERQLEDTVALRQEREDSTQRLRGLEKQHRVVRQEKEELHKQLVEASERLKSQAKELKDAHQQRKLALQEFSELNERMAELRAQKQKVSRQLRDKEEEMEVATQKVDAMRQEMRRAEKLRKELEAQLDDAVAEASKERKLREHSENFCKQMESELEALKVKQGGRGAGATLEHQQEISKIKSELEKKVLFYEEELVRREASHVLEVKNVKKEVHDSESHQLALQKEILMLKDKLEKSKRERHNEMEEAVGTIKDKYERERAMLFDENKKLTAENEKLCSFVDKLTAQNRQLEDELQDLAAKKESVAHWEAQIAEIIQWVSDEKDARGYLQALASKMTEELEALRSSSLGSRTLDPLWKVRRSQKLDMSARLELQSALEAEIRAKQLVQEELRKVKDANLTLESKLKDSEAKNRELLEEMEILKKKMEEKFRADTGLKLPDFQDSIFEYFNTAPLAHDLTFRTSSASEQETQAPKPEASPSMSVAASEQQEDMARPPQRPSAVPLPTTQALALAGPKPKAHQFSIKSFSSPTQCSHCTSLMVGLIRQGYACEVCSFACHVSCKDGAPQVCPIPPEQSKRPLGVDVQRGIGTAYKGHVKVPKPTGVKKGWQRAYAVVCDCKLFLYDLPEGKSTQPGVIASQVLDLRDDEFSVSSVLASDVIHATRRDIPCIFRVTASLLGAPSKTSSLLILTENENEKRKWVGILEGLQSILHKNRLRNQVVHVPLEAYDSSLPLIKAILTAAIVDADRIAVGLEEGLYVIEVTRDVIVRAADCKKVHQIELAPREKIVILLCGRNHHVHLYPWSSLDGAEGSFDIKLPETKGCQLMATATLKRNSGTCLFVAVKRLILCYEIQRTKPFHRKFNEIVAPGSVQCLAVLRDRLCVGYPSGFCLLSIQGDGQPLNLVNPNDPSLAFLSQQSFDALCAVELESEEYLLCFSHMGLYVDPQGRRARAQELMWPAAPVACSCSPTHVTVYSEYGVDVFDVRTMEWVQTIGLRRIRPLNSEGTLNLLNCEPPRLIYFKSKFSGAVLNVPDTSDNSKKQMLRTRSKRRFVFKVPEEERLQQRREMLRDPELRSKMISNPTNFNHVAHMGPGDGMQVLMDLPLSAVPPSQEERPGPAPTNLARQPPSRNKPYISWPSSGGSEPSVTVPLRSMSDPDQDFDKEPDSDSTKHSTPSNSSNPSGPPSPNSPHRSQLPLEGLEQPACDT

[6] = molecular target: TAOK3 (human) (UniProt Q9H2K8); settings: compound 0.5 µM; ATP 10 µM
[7] = molecular target: CDK6 CCND3 (human) (UniProt P30281+Q00534); settings: compound 0.5 µM
[8] = molecular target: VRK1 (human) (UniProt Q99986); settings: compound 0.5 µM; ATP 10 µM
[9] = molecular target: MAP3K9 (human) (UniProt P80192); settings: compound 0.5 µM; ATP 10 µM
[10] = molecular target: GSK3B (human) (UniProt P49841); settings: compound 0.5 µM; ATP 10 µM
[11] = molecular target: ROCK1 (human) (UniProt Q13464); settings: compound 0.5 µM; ATP 10 µM
[12] = molecular target: ERBB4 (human) (UniProt Q15303); settings: compound 0.5 µM; ATP 10 µM
[13] = molecular target: MYLK2 (human) (UniProt Q9H1R3); settings: compound 0.5 µM; ATP 10 µM
[14] = molecular target: TBK1 (human) (UniProt Q9UHD2); settings: compound 0.5 µM; ATP 10 µM
[15] = molecular target: CLK4 (human) (UniProt Q9HAZ1); settings: compound 0.5 µM; ATP 10 µM
[16] = molecular target: TEC (human) (UniProt P42680); settings: compound 0.5 µM; ATP 10 µM
[17] = molecular target: ROS1 (human) (UniProt P08922); settings: compound 0.5 µM; ATP 10 µM
[18] = molecular target: LIMK1 (human) (UniProt P53667); settings: compound 0.5 µM; ATP 10 µM
[19] = molecular target: CLK3 (human) (UniProt P49761); settings: compound 0.5 µM; ATP 10 µM
[20] = molecular target: DAPK3 (human) (UniProt O43293); settings: compound 0.5 µM; ATP 10 µM
[21] = molecular target: RPS6KA4 KD2 (human) (UniProt O75676); settings: compound 0.5 µM; ATP 10 µM
[22] = molecular target: JAK2 JH1 JH2 (human) (UniProt O60674); settings: compound 0.5 µM; ATP 10 µM
[23] = molecular target: CSK (human) (UniProt P41240); settings: compound 0.5 µM; ATP 10 µM
[24] = molecular target: DYRK4 (human) (UniProt Q9NR20); settings: compound 0.5 µM; ATP 10 µM
[25] = molecular target: BRSK1 (human) (UniProt Q8TDC3); settings: compound 0.5 µM; ATP 10 µM
[26] = molecular target: CAMK2G (human) (UniProt Q13555); settings: compound 0.5 µM; ATP 10 µM
[27] = molecular target: EPHA7 (human) (UniProt Q15375); settings: compound 0.5 µM; ATP 10 µM
[28] = molecular target: WNK3 (human) (UniProt Q9BYP7); settings: compound 0.5 µM; ATP 10 µM
[29] = molecular target: MINK1 (human) (UniProt Q8N4C8); settings: compound 0.5 µM; ATP 10 µM
Chain of MINK1 (human) (Q8N4C8 whole entry, looked up): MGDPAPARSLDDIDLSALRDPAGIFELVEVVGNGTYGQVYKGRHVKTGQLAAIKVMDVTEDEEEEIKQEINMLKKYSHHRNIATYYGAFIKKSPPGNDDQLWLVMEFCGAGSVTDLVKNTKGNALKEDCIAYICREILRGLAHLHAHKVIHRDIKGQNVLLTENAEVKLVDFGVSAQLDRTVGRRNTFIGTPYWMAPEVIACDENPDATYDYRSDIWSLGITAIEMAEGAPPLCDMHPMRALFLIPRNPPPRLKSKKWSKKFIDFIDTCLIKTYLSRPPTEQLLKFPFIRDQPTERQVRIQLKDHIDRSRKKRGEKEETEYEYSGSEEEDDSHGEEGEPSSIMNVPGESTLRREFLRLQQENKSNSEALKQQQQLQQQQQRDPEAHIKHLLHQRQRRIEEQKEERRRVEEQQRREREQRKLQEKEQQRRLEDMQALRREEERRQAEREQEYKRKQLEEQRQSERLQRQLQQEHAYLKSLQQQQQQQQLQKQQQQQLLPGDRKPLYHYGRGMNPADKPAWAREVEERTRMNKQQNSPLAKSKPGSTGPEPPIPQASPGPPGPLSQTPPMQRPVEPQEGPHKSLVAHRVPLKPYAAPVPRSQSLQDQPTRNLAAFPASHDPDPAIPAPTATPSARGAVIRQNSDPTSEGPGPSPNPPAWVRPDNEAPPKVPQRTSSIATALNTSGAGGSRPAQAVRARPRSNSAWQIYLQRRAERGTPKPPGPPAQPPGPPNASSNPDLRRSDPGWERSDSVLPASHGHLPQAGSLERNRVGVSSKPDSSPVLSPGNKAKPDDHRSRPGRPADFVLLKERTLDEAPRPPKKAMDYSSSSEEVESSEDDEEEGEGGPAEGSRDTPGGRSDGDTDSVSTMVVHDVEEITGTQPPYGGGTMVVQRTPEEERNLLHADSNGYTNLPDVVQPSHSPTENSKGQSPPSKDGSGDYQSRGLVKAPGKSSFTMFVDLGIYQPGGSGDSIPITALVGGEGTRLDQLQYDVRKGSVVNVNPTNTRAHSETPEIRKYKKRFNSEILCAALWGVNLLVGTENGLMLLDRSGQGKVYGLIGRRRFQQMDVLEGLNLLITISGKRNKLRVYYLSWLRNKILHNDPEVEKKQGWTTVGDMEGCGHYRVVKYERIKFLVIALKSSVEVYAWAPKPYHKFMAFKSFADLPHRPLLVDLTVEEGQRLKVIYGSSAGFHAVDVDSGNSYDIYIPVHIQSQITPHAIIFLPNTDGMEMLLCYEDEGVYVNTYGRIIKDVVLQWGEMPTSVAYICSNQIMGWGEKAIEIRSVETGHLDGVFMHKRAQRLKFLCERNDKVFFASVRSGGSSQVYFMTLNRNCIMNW

[30] = molecular target: MERTK (human) (UniProt Q12866); settings: compound 0.5 µM; ATP 10 µM
[31] = molecular target: ACVRL1 (human) (UniProt P37023); settings: compound 0.5 µM; ATP 10 µM
[32] = molecular target: DAPK2 (human) (UniProt Q9UIK4); settings: compound 0.5 µM; ATP 10 µM
Chain of DAPK2 (human) (Q9UIK4 whole entry, looked up): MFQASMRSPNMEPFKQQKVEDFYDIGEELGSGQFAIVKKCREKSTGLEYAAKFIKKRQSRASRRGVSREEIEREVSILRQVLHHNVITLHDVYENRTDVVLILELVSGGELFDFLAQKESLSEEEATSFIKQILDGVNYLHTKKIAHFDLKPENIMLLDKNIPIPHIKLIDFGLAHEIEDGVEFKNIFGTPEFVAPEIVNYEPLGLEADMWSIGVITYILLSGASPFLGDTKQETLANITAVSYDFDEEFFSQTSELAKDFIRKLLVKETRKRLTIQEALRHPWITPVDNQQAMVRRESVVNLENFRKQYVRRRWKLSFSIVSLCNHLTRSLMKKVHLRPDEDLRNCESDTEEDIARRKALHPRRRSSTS

[33] = molecular target: MAP3K5 (human) (UniProt Q99683); settings: compound 0.5 µM; ATP 10 µM
[34] = molecular target: CDK9 CCNT1 (human) (UniProt P50750+O60563); settings: compound 0.5 µM
[35] = molecular target: MAPK11 (human) (UniProt Q15759); settings: compound 0.5 µM; ATP 10 µM
Chain of MAPK11 (human) (Q15759 whole entry, looked up): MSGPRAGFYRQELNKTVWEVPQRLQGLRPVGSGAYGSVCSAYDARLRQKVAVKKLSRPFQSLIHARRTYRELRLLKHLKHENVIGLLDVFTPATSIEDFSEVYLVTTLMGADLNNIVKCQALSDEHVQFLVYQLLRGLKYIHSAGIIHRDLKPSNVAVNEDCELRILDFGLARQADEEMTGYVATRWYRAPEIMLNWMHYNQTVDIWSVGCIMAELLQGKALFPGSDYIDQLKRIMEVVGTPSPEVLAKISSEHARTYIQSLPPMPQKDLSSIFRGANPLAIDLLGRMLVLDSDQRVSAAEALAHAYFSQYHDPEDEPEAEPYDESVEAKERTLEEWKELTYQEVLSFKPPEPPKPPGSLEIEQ

[36] = molecular target: EPHB4 (human) (UniProt P54760); settings: compound 0.5 µM; ATP 10 µM
Chain of EPHB4 (human) (P54760 whole entry, looked up): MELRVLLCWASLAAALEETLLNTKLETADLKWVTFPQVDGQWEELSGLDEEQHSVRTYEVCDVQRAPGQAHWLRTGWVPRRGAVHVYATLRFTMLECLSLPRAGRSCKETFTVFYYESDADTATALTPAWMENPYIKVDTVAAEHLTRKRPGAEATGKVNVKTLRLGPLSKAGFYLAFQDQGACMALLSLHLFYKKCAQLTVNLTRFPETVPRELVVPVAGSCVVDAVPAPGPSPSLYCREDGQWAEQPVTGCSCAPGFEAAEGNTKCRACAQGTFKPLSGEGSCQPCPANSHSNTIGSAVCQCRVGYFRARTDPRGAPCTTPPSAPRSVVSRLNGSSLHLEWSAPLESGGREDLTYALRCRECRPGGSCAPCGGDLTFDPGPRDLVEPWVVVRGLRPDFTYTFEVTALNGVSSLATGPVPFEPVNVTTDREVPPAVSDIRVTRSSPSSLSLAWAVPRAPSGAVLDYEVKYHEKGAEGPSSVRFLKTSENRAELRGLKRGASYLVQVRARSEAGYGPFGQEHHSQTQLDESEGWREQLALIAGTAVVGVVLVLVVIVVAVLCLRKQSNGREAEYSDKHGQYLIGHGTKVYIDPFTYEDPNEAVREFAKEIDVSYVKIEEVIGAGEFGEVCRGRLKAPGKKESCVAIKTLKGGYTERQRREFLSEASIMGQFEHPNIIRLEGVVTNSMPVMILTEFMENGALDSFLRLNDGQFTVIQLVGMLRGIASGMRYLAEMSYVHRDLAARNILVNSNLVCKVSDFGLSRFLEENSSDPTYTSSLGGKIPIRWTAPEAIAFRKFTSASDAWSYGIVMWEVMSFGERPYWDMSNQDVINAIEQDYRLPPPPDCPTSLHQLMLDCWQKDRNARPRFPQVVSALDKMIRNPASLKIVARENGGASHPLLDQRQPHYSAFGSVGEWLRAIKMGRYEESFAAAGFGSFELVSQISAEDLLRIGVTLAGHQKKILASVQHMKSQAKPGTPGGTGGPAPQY

[37] = molecular target: CDK2 CCNE1 (human) (UniProt P24941+P24864); settings: compound 0.5 µM
[38] = molecular target: MAP4K5 (human) (UniProt Q9Y4K4); settings: compound 0.5 µM; ATP 10 µM
[39] = molecular target: RPS6KA5 KD2 (human) (UniProt O75582); settings: compound 0.5 µM; ATP 10 µM
[40] = molecular target: GRK7 (human) (UniProt Q8WTQ7); settings: compound 0.5 µM; ATP 10 µM
[41] = molecular target: PTK2B (human) (UniProt Q14289); settings: compound 0.5 µM; ATP 10 µM
[42] = molecular target: CSNK1A1 (human) (UniProt P48729); settings: compound 0.5 µM; ATP 10 µM
Chain of CSNK1A1 (human) (P48729 whole entry, looked up): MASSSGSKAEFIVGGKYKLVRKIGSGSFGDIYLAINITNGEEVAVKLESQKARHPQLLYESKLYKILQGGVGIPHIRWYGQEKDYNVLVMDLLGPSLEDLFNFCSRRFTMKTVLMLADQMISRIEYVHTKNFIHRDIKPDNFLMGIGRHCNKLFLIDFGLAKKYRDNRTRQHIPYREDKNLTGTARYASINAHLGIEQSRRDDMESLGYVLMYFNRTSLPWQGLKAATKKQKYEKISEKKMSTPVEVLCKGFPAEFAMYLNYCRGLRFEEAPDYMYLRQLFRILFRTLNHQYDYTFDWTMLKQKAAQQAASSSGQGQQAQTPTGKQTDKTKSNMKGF

## COc1cc2c(N3CCN(C(=O)Nc4ccc(OC(C)C)cc4)CC3)ncnc2cc1OCCCN1CCCCC1
[1]
  residual activity: 72.4%
[2]
  residual activity: 97.7%
[3]
  residual activity: 92.1%
[4]
  residual activity: 102%
[5]
  residual activity: 100%
[6]
  residual activity: 96.8%
[7]; ATP 10 µM
  residual activity: 92.7%
[8]
  residual activity: 100%
[9]
  residual activity: 108%
[10]
  residual activity: 98.1%
[11]
  residual activity: 102%
[12]
  residual activity: 97.3%
[13]
  residual activity: 101%
[14]
  residual activity: 97.2%
[15]
  residual activity: 88.7%
[16]
  residual activity: 89%
[17]
  residual activity: 90.1%
[18]
  residual activity: 88.6%
[19]
  residual activity: 93.4%
[20]
  residual activity: 101%
[21]
  residual activity: 120%
[22]
  residual activity: 101%
[23]
  residual activity: 99.3%
[24]
  residual activity: 101%
[25]
  residual activity: 103%
[26]
  residual activity: 101%
[27]
  residual activity: 97.5%
[28]
  residual activity: 102%
[29]
  residual activity: 99%
[30]
  residual activity: 106%
[31]
  residual activity: 102%
[32]
  residual activity: 104%
[33]
  residual activity: 96.6%
[34]; ATP 10 µM
  residual activity: 100%
[35]
  residual activity: 105%
[36]
  residual activity: 95%
[37]; ATP 10 µM
  residual activity: 96.7%
[38]
  residual activity: 87.6%
[39]
  residual activity: 109%
[40]
  residual activity: 104%
[41]
  residual activity: 99.3%
[42]
  residual activity: 101%

## O=c1[nH]c2ccccc2n1C1CCN(Cc2ccc(-c3nc4cc5[nH]cnc5cc4nc3-c3ccccc3)cc2)CC1
[1]
  residual activity: 109%
[2]
  residual activity: 95.5%
[3]
  residual activity: 96.7%
[4]
  residual activity: 94.3%
[5]
  residual activity: 101%
[6]
  residual activity: 111%
[7]
  residual activity: 99.1%
[8]
  residual activity: 98.3%
[9]
  residual activity: 93.9%
[10]
  residual activity: 113%
[11]
  residual activity: 101%
[12]
  residual activity: 105%
[13]
  residual activity: 103%
[14]
  residual activity: 92.7%
[15]
  residual activity: 92.8%
[16]
  residual activity: 162%
[17]
  residual activity: 101%
[18]
  residual activity: 110%
[19]
  residual activity: 111%
[20]
  residual activity: 106%
[21]
  residual activity: 98.8%
[22]
  residual activity: 104%
[23]
  residual activity: 101%
[24]
  residual activity: 109%
[25]
  residual activity: 98.3%
[26]
  residual activity: 105%
[27]
  residual activity: 109%
[28]
  residual activity: 106%
[29]
  residual activity: 103%
[30]
  residual activity: 96.2%
[31]
  residual activity: 105%
[32]
  residual activity: 99%
[33]
  residual activity: 93.8%
[34]
  residual activity: 93.2%
[35]
  residual activity: 102%
[36]
  residual activity: 96.4%
[37]
  residual activity: 95.6%
[38]
  residual activity: 91.9%
[39]
  residual activity: 103%
[40]
  residual activity: 98.5%
[41]
  residual activity: 105%
[42]
  residual activity: 96%

## O=C1NC(=O)c2cc(Nc3ccc(F)cc3)c(Nc3ccc(F)cc3)cc21
[1]
  residual activity: 102%
[2]
  residual activity: 97.3%
[3]
  residual activity: 102%
[4]
  residual activity: 95.7%
[5]
  residual activity: 100%
[6]
  residual activity: 89.9%
[7]; ATP 10 µM
  residual activity: 89.9%
[8]
  residual activity: 93%
[9]
  residual activity: 102%
[10]
  residual activity: 89.2%
[11]
  residual activity: 96.7%
[12]
  residual activity: 99.4%
[13]
  residual activity: 98.7%
[14]
  residual activity: 101%
[15]
  residual activity: 88.6%
[16]
  residual activity: 102%
[17]
  residual activity: 92%
[18]
  residual activity: 95.9%
[19]
  residual activity: 93.7%
[20]
  residual activity: 101%
[21]
  residual activity: 102%
[22]
  residual activity: 94.6%
[23]
  residual activity: 92%
[24]
  residual activity: 98.6%
[25]
  residual activity: 94.3%
[26]
  residual activity: 101%
[27]
  residual activity: 84.6%
[28]
  residual activity: 92.7%
[29]
  residual activity: 99%
[30]
  residual activity: 97.4%
[31]
  residual activity: 95.9%
[32]
  residual activity: 96.7%
[33]
  residual activity: 96.6%
[34]; ATP 10 µM
  residual activity: 95.4%
[35]
  residual activity: 94.6%
[36]
  residual activity: 108%
[37]; ATP 10 µM
  residual activity: 94.3%
[38]
  residual activity: 89.5%
[39]
  residual activity: 93.6%
[40]
  residual activity: 106%
[41]
  residual activity: 111%
[42]
  residual activity: 88%
